Test results: PubChem BioAssay (NCI)
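Each compound was tested at five concentrations against cells in 96-well plates for 48 hours. TGI is the concentration that stops growth completely.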

Experiments:
Test in all cases: NCI-60 cell line screen, 48 h
786-0 renal = test system: 786-0 renal
A498 renal = test system: A498 renal
A549 NSCLC = test system: A549 NSCLC
ACHN renal = test system: ACHN renal
BT-549 breast = test system: BT-549 breast
CAKI-1 renal = test system: CAKI-1 renal
CCRF-CEM leukemia = test system: CCRF-CEM leukemia
COLO 205 colon = test system: COLO 205 colon
DU-145 prostate = test system: DU-145 prostate
EKVX NSCLC = test system: EKVX NSCLC
HCC-2998 colon = test system: HCC-2998 colon
HCT-116 colon = test system: HCT-116 colon
HCT-15 colon = test system: HCT-15 colon
HL-60(TB) leukemia = test system: HL-60(TB) leukemia
HOP-62 NSCLC = test system: HOP-62 NSCLC
HOP-92 NSCLC = test system: HOP-92 NSCLC
HS 578T breast = test system: HS 578T breast
HT29 colon = test system: HT29 colon
IGROV1 ovarian = test system: IGROV1 ovarian
K-562 leukemia = test system: K-562 leukemia
KM12 colon = test system: KM12 colon
LOX IMVI melanoma = test system: LOX IMVI melanoma
M14 melanoma = test system: M14 melanoma
MCF7 breast = test system: MCF7 breast
MDA-MB-231 breast = test system: MDA-MB-231 breast
MDA-MB-435 = test system: MDA-MB-435
MDA-N = test system: MDA-N
MOLT-4 leukemia = test system: MOLT-4 leukemia
NCI-H460 lung = test system: NCI-H460 lung
NCI/ADR-RES ovarian = test system: NCI/ADR-RES ovarian
OVCAR-3 ovarian = test system: OVCAR-3 ovarian
OVCAR-4 ovarian = test system: OVCAR-4 ovarian
OVCAR-5 ovarian = test system: OVCAR-5 ovarian
OVCAR-8 ovarian = test system: OVCAR-8 ovarian
PC-3 prostate = test system: PC-3 prostate
RPMI-8226 leukemia = test system: RPMI-8226 leukemia
RXF 393 renal = test system: RXF 393 renal
SF-268 CNS = test system: SF-268 CNS
SF-295 CNS = test system: SF-295 CNS
SF-539 CNS = test system: SF-539 CNS
SK-MEL-2 melanoma = test system: SK-MEL-2 melanoma
SK-MEL-28 melanoma = test system: SK-MEL-28 melanoma
SK-MEL-5 melanoma = test system: SK-MEL-5 melanoma
SK-OV-3 ovarian = test system: SK-OV-3 ovarian
SN12C renal = test system: SN12C renal
SNB-19 CNS = test system: SNB-19 CNS
SR leukemia = test system: SR leukemia
SW-620 colon = test system: SW-620 colon
T-47D breast = test system: T-47D breast
TK-10 renal = test system: TK-10 renal
U251 CNS = test system: U251 CNS
UACC-257 melanoma = test system: UACC-257 melanoma
UACC-62 melanoma = test system: UACC-62 melanoma
UO-31 renal = test system: UO-31 renal
NCI-H226 lung = test system: NCI-H226 lung
NCI-H23 lung = test system: NCI-H23 lung
MALME-3M melanoma = test system: MALME-3M melanoma
NCI-H522 lung = test system: NCI-H522 lung
SNB-75 CNS = test system: SNB-75 CNS

Measured: TGI

O=C1/C(=C/c2cccc([N+](=O)[O-])c2)N=C(c2ccccc2)N1c1nc2c(Cl)cc(Cl)cc2s1
65.4 µM: SNB-19 CNS
85.7 µM: SK-OV-3 ovarian
40 µM: HT29 colon
74.2 µM: ACHN renal
39.2 µM: MDA-N
57.9 µM: SR leukemia
94.6 µM: BT-549 breast
85.4 µM: NCI/ADR-RES ovarian
93.8 µM: MCF7 breast
58.2 µM: IGROV1 ovarian
70.1 µM: DU-145 prostate
23.5 µM: CCRF-CEM leukemia
68.9 µM: T-47D breast
73.1 µM: SW-620 colon
33.5 µM: SK-MEL-5 melanoma
73.6 µM: HS 578T breast
77.9 µM: HOP-92 NSCLC
61.9 µM: HCC-2998 colon
49.6 µM: UO-31 renal
64.4 µM: PC-3 prostate
49.5 µM: OVCAR-8 ovarian
48 µM: SK-MEL-2 melanoma
45 µM: HOP-62 NSCLC | KM12 colon
> 100 µM: 786-0 renal | CAKI-1 renal | COLO 205 colon | HCT-15 colon | K-562 leukemia | MDA-MB-231 breast | NCI-H460 lung | RPMI-8226 leukemia | SF-295 CNS | SK-MEL-28 melanoma | TK-10 renal | UACC-257 melanoma | UACC-62 melanoma
52.2 µM: A549 NSCLC
48.1 µM: SF-539 CNS
60.9 µM: HL-60(TB) leukemia
46.8 µM: M14 melanoma
71.8 µM: MOLT-4 leukemia | OVCAR-4 ovarian
54.7 µM: SN12C renal
87.9 µM: OVCAR-5 ovarian
32.7 µM: LOX IMVI melanoma
78.1 µM: SF-268 CNS
55 µM: RXF 393 renal
57.8 µM: A498 renal
39.1 µM: OVCAR-3 ovarian
46 µM: MDA-MB-435
37.2 µM: U251 CNS
53.3 µM: EKVX NSCLC
37.4 µM: HCT-116 colon

CC1C2C=CC1C(c1c3ccc(=O)c(O)c-3oc3c(O)c(O)ccc13)C2C(=O)O (configuration not stated)
45.8 µM: K-562 leukemia
59.5 µM: RPMI-8226 leukemia
36.2 µM: MDA-MB-435
69.7 µM: HCT-116 colon
49.1 µM: LOX IMVI melanoma
56.4 µM: MOLT-4 leukemia
45.9 µM: MDA-N
86.5 µM: NCI-H226 lung
51.1 µM: SN12C renal
> 100 µM: 786-0 renal | A498 renal | A549 NSCLC | ACHN renal | BT-549 breast | CAKI-1 renal | COLO 205 colon | DU-145 prostate | EKVX NSCLC | HCC-2998 colon | HCT-15 colon | HL-60(TB) leukemia | HOP-62 NSCLC | HOP-92 NSCLC | HS 578T breast | HT29 colon | IGROV1 ovarian | KM12 colon | M14 melanoma | MDA-MB-231 breast | NCI-H23 lung | NCI-H460 lung | NCI/ADR-RES ovarian | OVCAR-3 ovarian | OVCAR-4 ovarian | OVCAR-5 ovarian | OVCAR-8 ovarian | PC-3 prostate | RXF 393 renal | SF-268 CNS | SF-295 CNS | SK-MEL-2 melanoma | SK-MEL-28 melanoma | SK-MEL-5 melanoma | SK-OV-3 ovarian | SNB-19 CNS | SR leukemia | SW-620 colon | T-47D breast | TK-10 renal | U251 CNS | UACC-257 melanoma | UACC-62 melanoma | UO-31 renal
7.38 µM: CCRF-CEM leukemia
40.8 µM: MCF7 breast

Cc1c(C(=O)O)nc(/C=C/C(=O)O)[nH]c1=O
> 100 µM: 786-0 renal | A498 renal | A549 NSCLC | ACHN renal | BT-549 breast | CAKI-1 renal | CCRF-CEM leukemia | COLO 205 colon | DU-145 prostate | EKVX NSCLC | HCT-116 colon | HCT-15 colon | HL-60(TB) leukemia | HOP-62 NSCLC | HOP-92 NSCLC | HS 578T breast | HT29 colon | IGROV1 ovarian | K-562 leukemia | KM12 colon | LOX IMVI melanoma | M14 melanoma | MALME-3M melanoma | MCF7 breast | MDA-MB-231 breast | MDA-MB-435 | MDA-N | MOLT-4 leukemia | NCI-H226 lung | NCI-H23 lung | NCI-H460 lung | NCI-H522 lung | NCI/ADR-RES ovarian | OVCAR-3 ovarian | OVCAR-4 ovarian | OVCAR-5 ovarian | OVCAR-8 ovarian | PC-3 prostate | RPMI-8226 leukemia | RXF 393 renal | SF-268 CNS | SF-295 CNS | SF-539 CNS | SK-MEL-2 melanoma | SK-MEL-28 melanoma | SK-MEL-5 melanoma | SK-OV-3 ovarian | SN12C renal | SNB-19 CNS | SNB-75 CNS | SR leukemia | SW-620 colon | T-47D breast | TK-10 renal | U251 CNS | UACC-257 melanoma | UACC-62 melanoma | UO-31 renal

COP(=O)(OC)C(C)(C)NC(=O)NC(F)(F)F
> 100 µM: 786-0 renal | A549 NSCLC | ACHN renal | BT-549 breast | CCRF-CEM leukemia | COLO 205 colon | DU-145 prostate | EKVX NSCLC | HCC-2998 colon | HCT-116 colon | HCT-15 colon | HL-60(TB) leukemia | HOP-62 NSCLC | HS 578T breast | HT29 colon | IGROV1 ovarian | K-562 leukemia | KM12 colon | LOX IMVI melanoma | M14 melanoma | MALME-3M melanoma | MCF7 breast | MDA-MB-231 breast | MDA-MB-435 | MDA-N | MOLT-4 leukemia | NCI-H23 lung | NCI-H460 lung | NCI/ADR-RES ovarian | OVCAR-3 ovarian | OVCAR-4 ovarian | OVCAR-5 ovarian | OVCAR-8 ovarian | PC-3 prostate | RPMI-8226 leukemia | RXF 393 renal | SF-268 CNS | SF-295 CNS | SF-539 CNS | SK-MEL-2 melanoma | SK-MEL-28 melanoma | SK-MEL-5 melanoma | SK-OV-3 ovarian | SN12C renal | SNB-19 CNS | SNB-75 CNS | SR leukemia | SW-620 colon | T-47D breast | TK-10 renal | U251 CNS | UACC-257 melanoma | UACC-62 melanoma | UO-31 renal
91.1 µM: NCI-H226 lung
16.6 µM: CAKI-1 renal

CCOc1ccc(N=NC2C(=O)N(C(=O)CC(=O)Nc3ccc(C)cc3)N=C2C)cc1 (configuration not stated)
27.7 µM: LOX IMVI melanoma
88.4 µM: NCI-H226 lung
95.7 µM: OVCAR-4 ovarian
40.9 µM: EKVX NSCLC
31.2 µM: OVCAR-8 ovarian
35.8 µM: MDA-MB-231 breast
13.9 µM: MDA-N
32.2 µM: U251 CNS
52.5 µM: A498 renal
25.8 µM: HCT-116 colon
43.8 µM: NCI-H460 lung
52.6 µM: UACC-62 melanoma
> 100 µM: A549 NSCLC | ACHN renal | BT-549 breast | CAKI-1 renal | CCRF-CEM leukemia | COLO 205 colon | DU-145 prostate | HCC-2998 colon | HCT-15 colon | HL-60(TB) leukemia | HT29 colon | IGROV1 ovarian | KM12 colon | M14 melanoma | MALME-3M melanoma | MCF7 breast | MOLT-4 leukemia | NCI-H23 lung | OVCAR-3 ovarian | OVCAR-5 ovarian | PC-3 prostate | SK-MEL-2 melanoma | SK-MEL-28 melanoma | SK-MEL-5 melanoma | SN12C renal | SR leukemia | SW-620 colon | T-47D breast | UACC-257 melanoma
39.9 µM: HOP-92 NSCLC
93.2 µM: TK-10 renal
36.5 µM: SF-539 CNS
40.1 µM: HS 578T breast
29.5 µM: 786-0 renal
78.7 µM: UO-31 renal
10.9 µM: MDA-MB-435
49.4 µM: SF-295 CNS
34.3 µM: HOP-62 NSCLC
75.2 µM: SF-268 CNS
51 µM: SNB-19 CNS
79.2 µM: NCI/ADR-RES ovarian
23.2 µM: SNB-75 CNS
